In patent publication US20210275480A1, “COMPOSITIONS AND METHODS FOR THE REDUCTION OR TREATMENT OF FIBROSIS” (AXCELLA HEALTH INC., priority 2018, published 2021):
“And” between values parts separate entries of the source, which are not always exact repeats. Identical values can stand only once.

What was measured:
STAM mice (NASH) = assay: STAM model of NASH (Example 2): NAFLD activity score, Sirius red, α-SMA staining; assay type: in vivo, mouse; parameters: key to NAFLD Activity: Ballooning Score, mean / NAFLD Activity: Steatosis Score, mean / NAFLD Activity: Inflammation Score, mean / NAFLD Activity Score: raw data / NAFLD Activity: Steatosis Score: raw data / NAFLD Activity: Ballooning Score: raw data: NAS = steatosis (0-3) + inflammation (0-2) + ballooning (0-2)
Description: Amino Acid Composition A-1 and Obeticholic acid (6α-ethyl-chenodeoxycholic acid; “OCA”) were tested for their ability to treat NASH in the STAM™ model (Stelic Institute & Co., Tokyo, Japan; Saito K. et al., 2015 Sci Rep 5: 12466). Two additional groups of normal C57BL/6 mice fed standard chow and vehicle treated STAM™ mice were included as controls. All animals receiving treatment or vehicle were treated starting at 6 weeks until 9 weeks of age. Compounds were administered via oral gavage, with a dose volume of 10 ml/kg. Amino Acid Composition A-1 was administered twice daily at a dose of 1500 mg/kg, and OCA was administered once daily at a dose of 30 mg/kg.
STAM™ is a model for non-alcoholic steatohepatitis (NASH) and hepatocellular carcinoma (HCC), developed by SMC Laboratories, Inc. and created by the combination of chemical and dietary interventions using C57BL/6 mice (Saito K. et al., 2015 Sci Rep 5: 12466). Mice are treated with a low dose of streptozotocin at birth and fed a high fat diet starting at 4 weeks. Evidence of fatty liver is present by 5 weeks, followed by NASH by 7 weeks and fibrosis by 9 weeks.
NASH was induced in 53 male mice by a single subcutaneous injection of 200 μg streptozotocin (STZ, Sigma-Aldrich, USA) solution 2 days after birth and feeding with high fat diet (HFD, 57 kcal % fat, Cat #HFD32, CLEA Japan, Japan) after 4 weeks of age.
Amino Acid Composition A-1, OCA and Vehicle (described below) were administered by oral route in a volume of 10 mL/kg. Amino Acid Composition A-1 was solubilized in deionized water to 150 mg/ml (10×). OCA (Advanced ChemBlocks Inc.) was resuspended in 0.5% methylcellulose in water to 3 mg/ml (10×). Amino Acid Composition A-1 was administered at a dose of 1500 mg/kg twice daily (9 am and 7 pm). OCA was administered at a dose of 30 mg/kg once daily (9 am).
Liver samples from mice in Group 2 (Vehicle), 3 (Amino Acid Composition A-1) and 4 (OCA) were used for the following assays. For HE staining, sections were cut from paraffin blocks of liver tissue prefixed in Bouin's solution and stained with Lillie-Mayer's Hematoxylin (Muto Pure Chemicals Co., Ltd., Japan) and eosin solution (Wako Pure Chemical Industries). NAFLD Activity score (NAS) was calculated according to the criteria of Kleiner (Kleiner D. E. et al., Hepatology, 2005; 41:1313).
Group 3: Amino Acid Composition A-1: Ten NASH mice were orally administered water for irrigation supplemented with Amino Acid Composition A-1 at a dose of 1500 mg/kg twice daily (9 am and 7 pm) from 6 to 9 weeks of age.
Group 4: OCA: Ten NASH mice were orally administered 0.5% methylcellulose supplemented with OCA at a dose of 30 mg/kg once daily (9 am) from 6 to 9 weeks of age.
The non-alcoholic fatty liver disease (NAFLD) activity score was assessed via histological analysis and grading of H&E stained liver sections from each animal. This score is the sum of three individual scores that grade the degree of steatosis (0-3), inflammation (0-2), and hepatocyte ballooning (0-2). All tissues were graded using the scoring criteria of Kleiner et al. (Kleiner et al. Hepatology. 2005; 41(6): 1313-21). Data are mean±standard deviation (stdev). […] Both Amino Acid Composition A-1 and OCA were statistically different from vehicle for NAFLD Activity Score when compared using Dunnett's multiple comparisons test (Amino Acid Composition A-1 p=0.0001, OCA p=0.0001).
Fibrosis was assessed by analysis of Sirius red positively stained cell area from stained liver sections from each animal. Images were quantified using the percent of positively stained area was used as a measure of fibrosis. Data are mean±standard deviation (stdev). […] Amino Acid Composition A-1 and OCA were statistically different from vehicle when compared using Dunnett's multiple comparisons test (Amino Acid Composition A-1 p=0.00494, OCA p<0.016).
Liver sections of all mice were stained for the marker α-smooth muscle actin (aSMA) to identify activated hepatic stellate cells. […]

[1] = system: Col1a1 gene expression, primary human hepatic stellate cells; assay: Col1a1 gene expression in TGFβ1-stimulated primary human hepatic stellate cells; assay type: cell-based; conditions: for Col1a1 Fold Expression Relative to Control, Mean: normalized to Gapdh; for Col1a1 gene expression: primary human hepatic stellate cells, three healthy donors, TGFβ1 3 ng/mL 24 h, summary in words
Description: Primary human hepatic stellate cells were obtained from Samsara Sciences. Cells were grown in Complete HSC Medium to ˜80% confluence in T75 or T150 flasks below passage 10 were seeded into sterile, collagen I coated, 96-well optical plastic microplates (ThermoScientific, 152036) and incubated overnight at 37° C., 5% CO2 in a humidified incubator in DMEM with 2% Fetal Bovine Serum and 1% Antibiotic-Antimycotic. After the overnight incubation, plates are washed and pretreated with medium±single amino acid dropout, 1×HMDB DMEM±supplemental amino acid dose for 10.5 hours. After 10.5 hour pretreatment, the same pretreatment medium supplemented with 3 ng/mL TGFβ1, was applied and incubated for 24 hours at 37° C., 5% CO2. After 24 hour stimulus, supernatant was removed, RNA was extracted and gene expression was evaluated using the ΔΔCq method within each single amino acid dropout and supplementation by normalizing to its own 1×HMDB concentration.

[2] = STAM mice liver sections, A-1 1500 mg/kg twice daily, OCA 30 mg/kg once daily
[3] = STAM mice treated 6 to 9 weeks of age, A-1 1500 mg/kg twice daily, OCA 30 mg/kg once daily

Structure (SMILES): CC[C@H]1[C@@H](O)[C@@H]2[C@H](CC[C@]3(C)[C@@H]([C@H](C)CCC(=O)O)CC[C@@H]23)[C@@]2(C)CC[C@@H](O)C[C@@H]12 [OCA, 6α-ethyl-chenodeoxycholic acid]
- Activated hepatic stellate cells (mean positively stained area, α-smooth muscle actin) (STAM mice (NASH); [2]): 1.562+/−0.31% and 1.562%
- Fibrosis (mean positively stained area, Sirius red) (STAM mice (NASH); [2]): 0.776+/−0.25% and 0.776%
- NAFLD Activity: Ballooning Score, mean (STAM mice (NASH); [3]): 0.3+/−0.48 and 0.3
- NAFLD Activity: Inflammation Score, mean (STAM mice (NASH); [3]): 1.8
- NAFLD Activity: Steatosis Score, mean (STAM mice (NASH); [3]): 0.8
- NAFLD Activity Score (NAS), mean (STAM mice (NASH); STAM mice treated 6 to 9 weeks of age, A-1 1500 mg/kg twice daily, OCA 30 mg/kg once daily, oral): 2.9+/−0.74 and 2.9
- Activated hepatic stellate cells (positively stained area, α-smooth muscle actin): raw data (STAM mice (NASH); individual STAM mice): 1.51% and 1.49% (2×) and 1.17% and 1.5% and 1.13% and 2.03% and 1.87% and 1.97% and 1.46%
- Fibrosis (positively stained area, Sirius red): raw data (STAM mice (NASH); individual STAM mice): 1.1% and 1.19% and 0.89% and 0.91% and 0.66% and 0.72% and 0.68% and 0.69% and 0.36% and 0.56%
- NAFLD Activity Score: raw data (STAM mice (NASH); individual STAM mice): 2 (3×) and 4 (2×) and 3 (5×)
- NAFLD Activity: Ballooning Score: raw data (STAM mice (NASH); individual STAM mice): 0 (7×) and 1 (3×)
- NAFLD Activity: Inflammation Score: raw data (STAM mice (NASH); individual STAM mice): 1 (4×) and 2 (4×) and 3 (2×)
- NAFLD Activity: Steatosis Score: raw data (STAM mice (NASH); individual STAM mice): 1 (8×) and 0 (2×)

Structure (SMILES): CC(C)[C@H](N)C(=O)O [VAL, valine]
- Col1a1 Fold Expression Relative to Control, Mean ([1]; Table 31-4, second donor, 234 μM (baseline, reference)): 1.01 fold
- Col1a1 Fold Expression Relative to Control, Mean ([1]; Table 31-4, second donor, 4684 μM): 1.22 fold
- Col1a1 Fold Expression Relative to Control, Mean ([1]; Table 31-4, second donor, 11710 μM): 1.27 fold
- Col1a1 Fold Expression Relative to Control, Mean ([1]; Table 31-4, second donor, 23420 μM): 1.13 fold
- Col1a1 Fold Expression Relative to Control, Mean ([1]; first donor, 234 μM (baseline, reference)): 1.00 fold
- Col1a1 Fold Expression Relative to Control, Mean ([1]; first donor, 4684 μM): 1.05 fold
- Col1a1 Fold Expression Relative to Control, Mean ([1]; first donor, 11710 μM): 1.09 fold
- Col1a1 Fold Expression Relative to Control, Mean ([1]; first donor, 23420 μM): 1.00 fold
- Col1a1 gene expression [1]: did not significantly change
- Col1a1 Fold Expression Relative to Control, Mean ([1]; second donor, 234 μM (baseline, reference)): 1.00 fold
- Col1a1 Fold Expression Relative to Control, Mean ([1]; second donor, 4684 μM): 1.05 fold
- Col1a1 Fold Expression Relative to Control, Mean ([1]; second donor, 11710 μM): 0.98 fold
- Col1a1 Fold Expression Relative to Control, Mean ([1]; second donor, 23420 μM): 1.05 fold

Structure (SMILES): CC[C@H](C)[C@H](N)C(=O)O [ILE, isoleucine]
- Col1a1 Fold Expression Relative to Control, Mean ([1]; Table 31-4, second donor, 66 μM (baseline, reference)): 1.02 fold
- Col1a1 Fold Expression Relative to Control, Mean ([1]; Table 31-4, second donor, 1328 μM): 0.94 fold
- Col1a1 Fold Expression Relative to Control, Mean ([1]; Table 31-4, second donor, 3320 μM): 0.94 fold
- Col1a1 Fold Expression Relative to Control, Mean ([1]; Table 31-4, second donor, 6639 μM): 1.03 fold
- Col1a1 Fold Expression Relative to Control, Mean ([1]; first donor, 66 μM (baseline, reference)): 1.01 fold
- Col1a1 Fold Expression Relative to Control, Mean ([1]; first donor, 1328 μM): 1.05 fold
- Col1a1 Fold Expression Relative to Control, Mean ([1]; first donor, 3320 μM): 1.10 fold
- Col1a1 Fold Expression Relative to Control, Mean ([1]; first donor, 6639 μM): 1.11 fold
- Col1a1 gene expression [1]: did not significantly change
- Col1a1 Fold Expression Relative to Control, Mean ([1]; second donor, 66 μM (baseline, reference)): 1.00 fold
- Col1a1 Fold Expression Relative to Control, Mean ([1]; second donor, 1328 μM): 0.97 fold
- Col1a1 Fold Expression Relative to Control, Mean ([1]; second donor, 3320 μM): 0.99 fold
- Col1a1 Fold Expression Relative to Control, Mean ([1]; second donor, 6639 μM): 1.03 fold
